pIC50: −log10 of the molar value.
Target: GGT (gamma glutamyl transpeptidase) of H. pylori ATCC 43504 cells (Helicobacter pylori, UniProt O25743)
Test: Cell Based GGT Inhibitor (CBGI) Assay
Conditions: whole H. pylori ATCC 43504 cells, ~30 min room temperature, AMC release fluorescence; table titled 'Binding Data of GGT Modulating Compounds'
Experimental: Cell Based GGT Inhibitor Assay
The protocol of the Cell Based GGT Inhibitor Assay (CBGI assay) is adapted from the Methods in Enzymology protocol 252: 66 (1995).
H. pylori Sample Preparation
H. pylori ATCC 43504 were grown on blood agar plates. For accurate results, the H. pylori cells were in a logarithmic, spiral phase. This was achieved by plating cells from a culture that was >75% spiral in a phosphate buffered saline (PBS) solution on blood agar plates and incubating them overnight in microaerophilic conditions at 37° C. The next day, the cells were harvested by adding 1 ml of PBS to the plate and scraping off cells gently with a loop. The cells were then placed in a sterile 50 ml conical tube and the plate was washed ˜5 times with 1 ml of PBS. The washes were then pooled in the same 50 ml tube. An OD600 was subsequently taken using PBS as the blank. The cells were then resuspended to reach a final OD600 of 0.05. A single blood agar plate typically yields approximately 50-75 mls of cells at A600 OD=0.05. 3 mls of cells at OD=0.05 are required for each 96-well plate; 30 μl added to each well yields a final OD of 0.015. 4-5 blood agar plates would yield more than enough H. pylori cells for 50 96-well microtitre plates.
On each test plate, two known inhibitors were added to separate control wells (4 μl 0.25 mM azaserine and 4 μl 1.25 mM γ-glu-hydroxamate). Control wells containing only cells were also included on each test plate. In each well, 70 μl of buffer was added using an automated dispenser. Then, 30 μl H. pylori cells were added at OD A600=0.05. After the cells were added to each well, the plate was kept at room temperature for ˜30 minutes. The reaction was terminated by dispensing 75 μl 100 mM glycine to each well.
GGT inhibition was determined by analyzing the release of amido-4-methylcoumarin (AMC) at A460 nm after excitation at A360 in Cytoflour//Walloc fluorescent plate reader. The data was compared to the average of the two control wells from each plate and the γ-glu-hydroxamate control, which should always be ˜50%. Any compound that inhibited ≦50% activity was retested.

Sequence of GGT (gamma glutamyl transpeptidase) of H. pylori ATCC 43504 cells (O25743 entry or part of it): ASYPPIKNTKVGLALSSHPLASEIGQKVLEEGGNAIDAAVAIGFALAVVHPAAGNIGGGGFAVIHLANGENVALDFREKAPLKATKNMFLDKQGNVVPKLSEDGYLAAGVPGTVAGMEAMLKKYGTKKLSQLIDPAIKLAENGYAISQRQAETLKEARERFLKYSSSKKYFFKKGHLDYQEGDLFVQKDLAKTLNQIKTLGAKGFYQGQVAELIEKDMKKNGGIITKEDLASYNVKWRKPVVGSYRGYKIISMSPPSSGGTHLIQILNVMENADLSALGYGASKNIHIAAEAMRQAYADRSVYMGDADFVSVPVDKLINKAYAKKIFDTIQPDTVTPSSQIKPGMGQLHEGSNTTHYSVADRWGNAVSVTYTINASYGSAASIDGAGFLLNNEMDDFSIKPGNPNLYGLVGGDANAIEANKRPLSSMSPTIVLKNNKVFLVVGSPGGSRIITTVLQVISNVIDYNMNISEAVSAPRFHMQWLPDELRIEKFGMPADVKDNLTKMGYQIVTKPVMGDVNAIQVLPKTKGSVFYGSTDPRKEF

| SMILES | pIC50 |
| --- | --- |
| CCN1CCCC(NC(=O)c2ccc(Nc3ccnc4cc5ccccc5cc34)cc2)C1 (stereo not shown) [A] | 5.95 |
| COc1cc(/C=C2/SC(=S)NC2=O)ccc1O [B] | 4.65 |
| Cc1nc(-c2nc(C(=O)/C=C/N(C)C)cs2)cs1 [C] | 4.45 to 4.75 |
| CC(C)OC(=O)CSc1nc2cc(C(=O)NC(Cc3cnc[nH]3)C(N)=O)ccc2n1CCc1c[nH]c2ccccc12 (stereo not shown) [D] | 5.34 |
| CCN(CC)CCn1c(SCC(=O)c2ccc(-c3ccccc3)cc2)nc2cc(C(=O)NC(Cc3cn(Cc4ccccc4)cn3)C(N)=O)ccc21 (stereo not shown) [E] | 4.95 |
| Cc1ccc(CSc2nnc(/N=C/N(C)C)s2)cc1 [F] | 5.70 |
| COc1cccc(-c2cc3[nH]c(C)cc(=O)n3n2)c1 [G] | 5.67 |
